Molecular target: T1, ΔF508-CFTR (Homo sapiens, UniProt P13569, DEL508-508)
T1 construct: expressed in transfected cells
Assay: Assays for detecting and measuring ΔF508-CFTR correction properties (membrane potential optical assay; Table 3 does not say which assay)
Format: cell-based
Settings: IC50/EC50 bins; NIH3T3 mouse fibroblasts stably expressing ΔF508-CFTR; read-out: Binned EC50
Description: The optical membrane potential assay utilized voltage-sensitive FRET sensors described by Gonzalez and Tsien (See Gonzalez, J. E. and R. Y. Tsien (1995) “Voltage sensing by fluorescence resonance energy transfer in single cells” Biophys J 69(4): 1272-80, and Gonzalez, J. E. and R. Y. Tsien (1997) “Improved indicators of cell membrane potential that use fluorescence resonance energy transfer” Chem Biol 4(4): 269-77) in combination with instrumentation for measuring fluorescence changes such as the Voltage/Ion Probe Reader (VIPR) (See Gonzalez, J. E., K. Oades, et al. (1999) “Cell-based assays and instrumentation for screening ion-channel targets” Drug Discov Today 4(9): 431-439).
These voltage sensitive assays are based on the change in fluorescence resonant energy transfer (FRET) between the membrane-soluble, voltage-sensitive dye, DiSBAC2(3), and a fluorescent phospholipid, CC2-DMPE, which is attached to the outer leaflet of the plasma membrane and acts as a FRET donor. Changes in membrane potential (Vm) cause the negatively charged DiSBAC2(3) to redistribute across the plasma membrane and the amount of energy transfer from CC2-DMPE changes accordingly. The changes in fluorescence emission were monitored using VIPR™ II, which is an integrated liquid handler and fluorescent detector designed to conduct cell-based screens in 96- or 384-well microtiter plates.
To identify small molecules that correct the trafficking defect associated with ΔF508-CFTR; a single-addition HTS assay format was developed. The cells were incubated in serum-free medium for 16 hrs at 37° C. in the presence or absence (negative control) of test compound. As a positive control, cells plated in 384-well plates were incubated for 16 hrs at 27° C. to “temperature-correct” ΔF508-CFTR. The cells were subsequently rinsed 3× with Krebs Ringers solution and loaded with the voltage-sensitive dyes. To activate ΔF508-CFTR, 10 μM forskolin and the CFTR potentiator, genistein (20 μM), were added along with Cl^−-free medium to each well. The addition of Cl^−-free medium promoted Cl^− efflux in response to ΔF508-CFTR activation and the resulting membrane depolarization was optically monitored using the FRET-based voltage-sensor dyes. […]
3. Solutions • Bath Solution #1: (in mM) NaCl 160, KCl 4.5, CaCl2 2, MgCl2 1, HEPES 10, pH 7.4 with NaOH. • Chloride-free bath solution: Chloride salts in Bath Solution #1 are substituted with gluconate salts. • CC2-DMPE: Prepared as a 10 mM stock solution in DMSO and stored at −20° C. • DiSBAC2(3): Prepared as a 10 mM stock in DMSO and stored at −20° C.
NIH3T3 mouse fibroblasts stably expressing ΔF508-CFTR are used for optical measurements of membrane potential. The cells are maintained at 37° C. in 5% CO2 and 90% humidity in Dulbecco's modified Eagle's medium supplemented with 2 mM glutamine, 10% fetal bovine serum, 1×NEAA, β-ME, 1×pen/strep, and 25 mM HEPES in 175 cm^2 culture flasks. For all optical assays, the cells were seeded at 30,000/well in 384-well matrigel-coated plates and cultured for 2 hrs at 37° C. before culturing at 27° C. for 24 hrs for the potentiator assay. For the correction assays, the cells are cultured at 27° C. or 37° C. with and without compounds for 16-24 hours.

T1 sequence (P13569 with tags, fused parts or gaps DEL508-508): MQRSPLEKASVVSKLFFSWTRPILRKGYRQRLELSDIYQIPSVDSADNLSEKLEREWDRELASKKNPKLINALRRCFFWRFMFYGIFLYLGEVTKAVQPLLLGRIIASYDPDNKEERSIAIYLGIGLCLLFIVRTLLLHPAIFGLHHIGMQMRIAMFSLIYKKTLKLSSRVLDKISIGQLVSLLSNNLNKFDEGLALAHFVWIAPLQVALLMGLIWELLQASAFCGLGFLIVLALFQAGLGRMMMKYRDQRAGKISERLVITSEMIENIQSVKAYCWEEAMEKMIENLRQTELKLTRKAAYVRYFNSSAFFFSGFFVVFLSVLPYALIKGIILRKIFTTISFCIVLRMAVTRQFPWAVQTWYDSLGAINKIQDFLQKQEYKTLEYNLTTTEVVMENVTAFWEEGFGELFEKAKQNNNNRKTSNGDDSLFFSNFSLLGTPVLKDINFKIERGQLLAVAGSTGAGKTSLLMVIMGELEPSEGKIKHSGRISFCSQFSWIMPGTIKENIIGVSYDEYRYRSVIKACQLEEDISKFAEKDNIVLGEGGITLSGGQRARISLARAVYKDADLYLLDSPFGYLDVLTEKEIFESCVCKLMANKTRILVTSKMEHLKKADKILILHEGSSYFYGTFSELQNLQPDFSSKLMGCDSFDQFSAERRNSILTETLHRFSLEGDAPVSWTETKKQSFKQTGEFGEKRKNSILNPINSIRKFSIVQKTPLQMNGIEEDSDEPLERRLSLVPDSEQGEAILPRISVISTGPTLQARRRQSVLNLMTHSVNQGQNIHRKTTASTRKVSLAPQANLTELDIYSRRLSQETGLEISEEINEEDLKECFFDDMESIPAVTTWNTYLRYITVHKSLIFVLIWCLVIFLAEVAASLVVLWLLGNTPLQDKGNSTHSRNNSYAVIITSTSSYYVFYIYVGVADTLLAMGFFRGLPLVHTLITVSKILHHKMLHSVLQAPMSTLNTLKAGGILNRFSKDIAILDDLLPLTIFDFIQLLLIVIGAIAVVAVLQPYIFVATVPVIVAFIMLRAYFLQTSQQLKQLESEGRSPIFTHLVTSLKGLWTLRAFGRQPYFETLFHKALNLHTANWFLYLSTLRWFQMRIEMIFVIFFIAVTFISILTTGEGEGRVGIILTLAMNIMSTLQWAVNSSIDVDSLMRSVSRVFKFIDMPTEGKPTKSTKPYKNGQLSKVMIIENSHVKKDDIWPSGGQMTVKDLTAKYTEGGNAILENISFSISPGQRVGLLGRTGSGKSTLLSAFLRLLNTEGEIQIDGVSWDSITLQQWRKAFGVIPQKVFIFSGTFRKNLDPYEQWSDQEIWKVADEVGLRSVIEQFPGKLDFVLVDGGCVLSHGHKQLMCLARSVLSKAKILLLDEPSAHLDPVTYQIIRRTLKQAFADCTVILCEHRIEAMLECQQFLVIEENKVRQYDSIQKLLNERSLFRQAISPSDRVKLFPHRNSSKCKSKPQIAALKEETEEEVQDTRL

SMILES	EC50
CN1CCN(C(=O)c2ccc(-c3nc(NC(=O)C4(c5ccc6c(c5)OC(F)(F)O6)CC4)cc4ccccc34)cc2)CC1 [Compound 24, 1-(2,2-difluorobenzo[d][1,3]dioxol-5-yl)-N-(1-(4-(4-methylpiperazine-1-carbonyl)phenyl)isoquinolin-3-yl)cyclopropanecarboxamide]	≤ 2000 nM
CS(=O)(=O)NCc1ccc(-c2nc(NC(=O)C3(c4ccc5c(c4)OC(F)(F)O5)CC3)cc3ccccc23)cc1 [Compound 1, 1-(2,2-Difluorobenzo[d][1,3]dioxol-5-yl)-N-(1-(4-(methylsulfonamidomethyl)phenyl)isoquinolin-3-yl)cyclopropanecarboxamide]	> 5000 nM
COc1ccc(C2(C(=O)Nc3cc4ccccc4c(N4CCCCC4)n3)CC2)cc1 [Compound 23, 1-(4-methoxyphenyl)-N-(1-(piperidin-1-yl)isoquinolin-3-yl)cyclopropanecarboxamide]	≤ 2000 nM
COc1ccc(C2(C(=O)Nc3cc4ccccc4c(N4CCC(c5ccccc5)CC4)n3)CC2)cc1 [Compound 20, 1-(4-methoxyphenyl)-N-(1-(4-phenylpiperidin-1-yl)isoquinolin-3-yl)cyclopropanecarboxamide]	≤ 2000 nM
NC(=O)c1cccc(-c2nc(NC(=O)C3(c4ccc5c(c4)OC(F)(F)O5)CC3)cc3ccccc23)c1 [Compound 22, 3-(3-(1-(2,2-Difluorobenzo[d][1,3]dioxol-5-yl)cyclopropanecarboxamido)isoquinolin-1-yl)benzamide]	≤ 2000 nM
O=C(Nc1cc2ccccc2c(-c2ccc3[nH]ncc3c2)n1)C1(c2ccc3c(c2)OC(F)(F)O3)CC1 [Compound 2, N-(1-(1H-Indazol-5-yl)isoquinolin-3-yl)-1-(2,2-difluorobenzo[d][1,3]dioxol-5-yl)cyclopropanecarboxamide]	≤ 2000 nM
CC(=O)NCc1cccc(-c2nc(NC(=O)C3(c4ccc5c(c4)OC(F)(F)O5)CC3)cc3ccccc23)c1 [Compound 10, N-(1-(3-(Acetamidomethyl)phenyl)isoquinolin-3-yl)-1-(2,2-difluorobenzo[d][1,3]dioxol-5-yl)cyclopropanecarboxamide]	≤ 2000 nM
COc1ccc(C2(C(=O)Nc3cc4ccccc4c(N4CCN(C)CC4)n3)CC2)cc1 [Compound 12]	≤ 2000 nM
O=C1NCc2ccc(-c3nc(NC(=O)C4(c5ccc6c(c5)OC(F)(F)O6)CC4)cc4ccccc34)cc21 [Compound 15, 1-(2,2-Difluorobenzo[d][1,3]dioxol-5-yl)-N-(1-(3-oxoisoindolin-5-yl)isoquinolin-3-yl)cyclopropanecarboxamide]	≤ 2000 nM
O=C(Nc1cc2ccccc2c(-c2ccccc2)n1)C1(c2ccc3c(c2)OC(F)(F)O3)CC1 [Compound 4, 1-(2,2-difluorobenzo[d][1,3]dioxol-5-yl)-N-(1-phenylisoquinolin-3-yl)cyclopropanecarboxamide]	≤ 2000 nM
NS(=O)(=O)c1ccc(-c2nc(NC(=O)C3(c4ccc5c(c4)OC(F)(F)O5)CC3)cc3ccccc23)cc1 [Compound 11, 1-(2,2-Difluorobenzo[d][1,3]dioxol-5-yl)-N-(1-(4-sulfamoylphenyl)isoquinolin-3-yl)cyclopropanecarboxamide]	≤ 2000 nM

More lines, now with the values ahead:

EC50	SMILES
≤ 2000 nM	NC(=O)c1ccc(-c2nc(NC(=O)C3(c4ccc5c(c4)OC(F)(F)O5)CC3)cc3ccccc23)cc1 [Compound 6, 4-(3-(1-(2,2-Difluorobenzo[d][1,3]dioxol-5-yl)cyclopropanecarboxamido)isoquinolin-1-yl)benzamide]
≤ 2000 nM	NS(=O)(=O)c1cccc(-c2nc(NC(=O)C3(c4ccc5c(c4)OC(F)(F)O5)CC3)cc3ccccc23)c1 [Compound 13, 1-(2,2-Difluorobenzo[d][1,3]dioxol-5-yl)-N-(1-(3-sulfamoylphenyl)isoquinolin-3-yl)cyclopropanecarboxamide]
≤ 2000 nM	Cc1cc2cc(-c3nc(NC(=O)C4(c5ccc6c(c5)OC(F)(F)O6)CC4)cc4ccccc34)ccc2[nH]1 [Compound 7, 1-(2,2-difluorobenzo[d][1,3]dioxol-5-yl)-N-(1-(2-methyl-1H-indol-5-yl)isoquinolin-3-yl)cyclopropanecarboxamide]
≤ 2000 nM	CNS(=O)(=O)c1ccc(-c2nc(NC(=O)C3(c4ccc5c(c4)OC(F)(F)O5)CC3)cc3ccccc23)c(C)c1 [Compound 26, 1-(2,2-difluorobenzo[d][1,3]dioxol-5-yl)-N-(1-(2-methyl-4-(N-methylsulfamoyl)phenyl)isoquinolin-3-yl)cyclopropanecarboxamide]
≤ 2000 nM	COc1ccc(-c2nc(NC(=O)C3(c4ccc5c(c4)OC(F)(F)O5)CC3)cc3ccccc23)cn1 [Compound 25, 1-(2,2-Difluorobenzo[d][1,3]dioxol-5-yl)-N-(1-(6-methoxypyridin-3-yl)isoquinolin-3-yl)cyclopropanecarboxamide]
≤ 2000 nM	CS(=O)(=O)NCc1cccc(-c2nc(NC(=O)C3(c4ccc5c(c4)OC(F)(F)O5)CC3)cc3ccccc23)c1 [Compound 9, 1-(2,2-Difluorobenzo[d][1,3]dioxol-5-yl)-N-(1-(3-(methylsulfonamidomethyl)phenyl)isoquinolin-3-yl)cyclopropanecarboxamide]
≤ 2000 nM	O=C(Nc1cc2ccccc2c(-c2ccc3[nH]ccc3c2)n1)C1(c2ccc3c(c2)OC(F)(F)O3)CC1 [Compound 16, N-(1-(1H-Indol-5-yl)isoquinolin-3-yl)-1-(2,2-difluorobenzo[d][1,3]dioxol-5-yl)cyclopropanecarboxamide]
≤ 2000 nM	C[N+](C)(C)CCOC(=O)c1cccc(-c2nc(NC(=O)C3(c4ccc5c(c4)OC(F)(F)O5)CC3)cc3ccccc23)c1 [Compound 28, 2-(3-(3-(1-(2,2-Difluorobenzo[d][1,3]dioxol-5-yl)cyclopropanecarboxamido)isoquinolin-1-yl)benzoyloxy)-N,N,N-trimethylethanaminium chloride]
≤ 2000 nM	O=C(O)c1ccc(-c2nc(NC(=O)C3(c4ccc5c(c4)OC(F)(F)O5)CC3)cc3ccccc23)cc1 [Compound 5]
≤ 2000 nM	CC(=O)NCc1ccc(-c2nc(NC(=O)C3(c4ccc5c(c4)OC(F)(F)O5)CC3)cc3ccccc23)cc1 [Compound 3, N-(1-(4-(Acetamidomethyl)phenyl)isoquinolin-3-yl)-1-(2,2-difluorobenzo[d][1,3]dioxol-5-yl)cyclopropanecarboxamide]
≤ 2000 nM	O=C(O)c1cccc(-c2nc(NC(=O)C3(c4ccc5c(c4)OC(F)(F)O5)CC3)cc3ccccc23)c1 [Compound 8]
≤ 2000 nM	COc1ccc(C2(C(=O)Nc3cc4ccccc4c(N4CCNC(=O)C4)n3)CC2)cc1 [Compound 21]
≤ 2000 nM	COc1ccc(C2(C(=O)Nc3cc4ccccc4c(N4CCN(c5ccccc5)C(=O)C4)n3)CC2)cc1 [Compound 14, 1-(4-methoxyphenyl)-N-(1-(3-oxo-4-phenylpiperazin-1-yl)isoquinolin-3-yl)cyclopropanecarboxamide]
≤ 2000 nM	CN(C)CCOC(=O)c1cccc(-c2nc(NC(=O)C3(c4ccc5c(c4)OC(F)(F)O5)CC3)cc3ccccc23)c1 [Compound 19, 2-(Dimethylamino)ethyl 3-(3-(1-(2,2-difluorobenzo[d][1,3]dioxol-5-yl)cyclopropanecarboxamido)isoquinolin-1-yl)benzoate]
≤ 2000 nM	O=C(Nc1cc2ccccc2c(-c2ccc(CO)cc2)n1)C1(c2ccc3c(c2)OC(F)(F)O3)CC1 [Compound 27, 1-(2,2-Difluorobenzo[d][1,3]dioxol-5-yl)-N-(1-(4-(hydroxymethyl)phenyl)isoquinolin-3-yl)cyclopropanecarboxamide]
≤ 2000 nM	COc1ccc(C2(C(=O)Nc3cc4ccccc4c(N4CCOCC4)n3)CC2)cc1 [Compound 18, 1-(4-methoxyphenyl)-N-(1-morpholinoisoquinolin-3-yl)cyclopropanecarboxamide]
